Assay results from ChEMBL document CHEMBL1201862, “PubChem BioAssay data set” (2004).
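1) Cells in 96-well plates. 2) Compound, 48 h, 5 concentrations. 3) Linear interpolation between surrounding doses. 4) Unreached endpoint = highest concentration. GI50 marks 50% less growth.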 The source made the active and inactive calls. Rule as the data show it: active = GI50 up to about 1.1 µM and inactive = higher.

Tests used:
Experiment in all cases: growth of human tumour cells (NCI), 48 h
CCRF-CEM = tested on: CCRF-CEM
COLO 205 = tested on: COLO 205
DU-145 = tested on: DU-145
EKVX = tested on: EKVX
HCT-15 = tested on: HCT-15
Hs-578T = tested on: Hs-578T
K562 = tested on: K562
LOX IMVI = tested on: LOX IMVI
MDA-N = tested on: MDA-N
NCI-H460 = tested on: NCI-H460
OVCAR-3 = tested on: OVCAR-3
OVCAR-4 = tested on: OVCAR-4
OVCAR-8 = tested on: OVCAR-8
SF-295 = tested on: SF-295
SF-539 = tested on: SF-539
SK-OV-3 = tested on: SK-OV-3
SR = tested on: SR
U-251 = tested on: U-251
UACC-257 = tested on: UACC-257
UACC-62 = tested on: UACC-62

Structure (SMILES)	GI50 (CCRF-CEM)	GI50 (COLO 205)	GI50 (DU-145)	GI50 (EKVX)	GI50 (HCT-15) [µM]	GI50 (Hs-578T)	GI50 (K562)	GI50 (LOX IMVI)	GI50 (MDA-N)	GI50 (NCI-H460)	GI50 (OVCAR-3)	GI50 (OVCAR-4)	GI50 (OVCAR-8)	GI50 (SF-295)	GI50 (SF-539)	GI50 (SK-OV-3)	GI50 (SR)	GI50 (U-251)	GI50 (UACC-257)	GI50 (UACC-62)
O=C(O)C1C2c3ccccc3C(c3ccccc32)C1C(=O)NCC1CC1 (stereo not given)	31.2 µM (inactive)	54.5 µM (inactive)	81.1 µM (inactive)	71.9 µM (inactive)	48.3	63.5 µM (inactive)	45.3 µM (inactive)	65.8 µM (inactive)	48.2 µM (inactive)	40.2 µM (inactive)	46.8 µM (inactive)	79.1 µM (inactive)	55 µM (inactive)	46.2 µM (inactive)	> 100 µM (inactive)	56.2 µM (inactive)	45 µM (inactive)	47 µM (inactive)	19.1 µM (inactive)	38.5 µM (inactive)
Cc1ccc(C(=O)C(Cl)C(Cl)c2ccc(C)cc2)cc1 (stereo not given)	0.622 µM (active)	2.07 µM (inactive)	5.18 µM (inactive)	5.42 µM (inactive)	1.83	21.8 µM (inactive)	1.49 µM (inactive)	1.87 µM (inactive)	2.21 µM (inactive)	8.38 µM (inactive)	3.42 µM (inactive)	2.33 µM (inactive)	2.72 µM (inactive)	11.4 µM (inactive)	2.49 µM (inactive)	15.2 µM (inactive)	1.82 µM (inactive)	3.46 µM (inactive)	1.92 µM (inactive)	3.67 µM (inactive)
COc1cc(C2c3cc4c(cc3OC(NNC(N)=O)C2C)OCO4)cc(OC)c1O (stereo not given)	2.5 µM (inactive)	2.59 µM (inactive)	3.96 µM (inactive)	> 28.4 µM (inactive)	13	2.22 µM (inactive)	0.433 µM (active)	4.06 µM (inactive)	0.274 µM (active)	2.12 µM (inactive)	1.03 µM (active)	> 43.9 µM (inactive)	4.5 µM (inactive)	1.04 µM (active)	0.933 µM (active)	3.11 µM (inactive)	1.12 µM (active)	2.1 µM (inactive)	3.19 µM (inactive)	0.512 µM (active)
C=C1C(=O)O[C@H]2C/C(C)=C/CC/C(C)=C/CC[C@@](C)(O)[C@@H](I)C[C@@H]12	1.49 µM (inactive)	9.44 µM (inactive)	9.44 µM (inactive)	7.14 µM (inactive)	6.04	5.79 µM (inactive)	2.94 µM (inactive)	0.234 µM (active)	3.33 µM (inactive)	13.2 µM (inactive)	12.3 µM (inactive)	4.94 µM (inactive)	0.791 µM (active)	18.4 µM (inactive)	4 µM (inactive)	16 µM (inactive)	2.67 µM (inactive)	13.6 µM (inactive)	12.4 µM (inactive)	11.3 µM (inactive)
CC(C)(C)NC(NC(C)(C)C)=C(/C=C(/Cl)[N+](=O)[O-])[N+](=O)[O-]	67.8 µM (inactive)	26.4 µM (inactive)	> 100 µM (inactive)	> 100 µM (inactive)	73.1	56.9 µM (inactive)	55.1 µM (inactive)	> 100 µM (inactive)	26.2 µM (inactive)	52.2 µM (inactive)	20 µM (inactive)	17.1 µM (inactive)	38.7 µM (inactive)	> 100 µM (inactive)	38.3 µM (inactive)	> 100 µM (inactive)	32.6 µM (inactive)	> 100 µM (inactive)	94 µM (inactive)	42.6 µM (inactive)
C/C=C1/CN2CCc3c([nH]c4ccccc34)[C@@H]2C[C@@H]1Cc1nccc2c1[nH]c1cc(O)ccc12	2.9 µM (inactive)	2.78 µM (inactive)	2.07 µM (inactive)	2.07 µM (inactive)	2.9	2.23 µM (inactive)	2.13 µM (inactive)	2.77 µM (inactive)	2.01 µM (inactive)	16.5 µM (inactive)	2.39 µM (inactive)	1.57 µM (inactive)	1.9 µM (inactive)	1.9 µM (inactive)	2.02 µM (inactive)	2.17 µM (inactive)	11.7 µM (inactive)	2.19 µM (inactive)	2.41 µM (inactive)	2.07 µM (inactive)
COc1cc(C(C[N+](=O)[O-])SC(C)=O)ccc1OCc1ccccc1 (stereo not given)	1.18 µM (inactive)	5.24 µM (inactive)	13.3 µM (inactive)	19.8 µM (inactive)	3.08	3.31 µM (inactive)	1.38 µM (inactive)	1.43 µM (inactive)	2.88 µM (inactive)	8.95 µM (inactive)	3.01 µM (inactive)	14.4 µM (inactive)	5.9 µM (inactive)	2.9 µM (inactive)	2.48 µM (inactive)	16.1 µM (inactive)	1.79 µM (inactive)	6.9 µM (inactive)	5.02 µM (inactive)	3.09 µM (inactive)
Clc1ccc(Cc2nc3cc(CCN4CCN(c5ccccc5)CC4)ccc3[nH]2)cc1	> 100 µM (inactive)	4.06 µM (inactive)	17.4 µM (inactive)	22 µM (inactive)	15	20.3 µM (inactive)	5.93 µM (inactive)	12.6 µM (inactive)	15.3 µM (inactive)	12.9 µM (inactive)	13 µM (inactive)	10.3 µM (inactive)	17 µM (inactive)	12.3 µM (inactive)	17.3 µM (inactive)	17.9 µM (inactive)	8.02 µM (inactive)	13 µM (inactive)	5.42 µM (inactive)	16 µM (inactive)
CC1(C)C(CBr)=[N+]([O-])C(C)(C)N1O	0.604 µM (active)	1.83 µM (inactive)	> 10 µM (inactive)	> 5.6 µM (inactive)	2.55	> 10 µM (inactive)	> 4.93 µM (inactive)	3.7 µM (inactive)	3.99 µM (inactive)	> 10 µM (inactive)	3.32 µM (inactive)	1.77 µM (inactive)	> 6.97 µM (inactive)	> 10 µM (inactive)	> 5.38 µM (inactive)	> 10 µM (inactive)	> 3.74 µM (inactive)	> 10 µM (inactive)	8.99 µM (inactive)	7.59 µM (inactive)
COC(=O)[C@@H]1C=CCN1S(=O)(=O)c1ccc(C)cc1	21.8 µM (inactive)	> 100 µM (inactive)	> 100 µM (inactive)	> 100 µM (inactive)	37.5	> 100 µM (inactive)	31.9 µM (inactive)	> 100 µM (inactive)	29.2 µM (inactive)	42.5 µM (inactive)	50.8 µM (inactive)	> 100 µM (inactive)	> 100 µM (inactive)	> 100 µM (inactive)	60.1 µM (inactive)	> 100 µM (inactive)	20.5 µM (inactive)	31.1 µM (inactive)	> 100 µM (inactive)	38 µM (inactive)
CCOC(=O)NC(Nc1ncn(C(NC(=O)OCC)(C(F)(F)F)C(F)(F)F)n1)(C(F)(F)F)C(F)(F)F	> 100 µM (inactive)	> 100 µM (inactive)	> 100 µM (inactive)	> 100 µM (inactive)	> 100	> 100 µM (inactive)	> 100 µM (inactive)	> 100 µM (inactive)	> 100 µM (inactive)	> 100 µM (inactive)	> 100 µM (inactive)	> 100 µM (inactive)	> 100 µM (inactive)	> 100 µM (inactive)	> 100 µM (inactive)	> 100 µM (inactive)	> 100 µM (inactive)	> 100 µM (inactive)	> 100 µM (inactive)	> 100 µM (inactive)
COc1cccc2c1C(=O)c1c(O)c3c(c(O)c1C2=O)C[C@@](O)(C(=O)CO)CC3OC1CC(N)C(OC2CCCCO2)C(C)O1 (stereo not given in full)	0.168 µM (active)	1.21 µM (inactive)	0.0031 µM (active)	1.39 µM (inactive)	1.61	0.164 µM (active)	0.646 µM (active)	0.356 µM (active)	0.124 µM (active)	0.0134 µM (active)	1.56 µM (inactive)	0.0366 µM (active)	0.35 µM (active)	0.23 µM (active)	0.267 µM (active)	0.807 µM (active)	0.0314 µM (active)	0.402 µM (active)	1.17 µM (inactive)	0.918 µM (active)
CC(C)NC(=O)OCc1c(COC(=O)NC(C)C)c(-c2ccc[n+](COC(=O)C(C)(C)C)c2)n2c1CCC2	24.9 µM (inactive)	> 93.5 µM (inactive)	> 91.4 µM (inactive)	> 100 µM (inactive)	> 100	> 67.5 µM (inactive)	99.8 µM (inactive)	46.6 µM (inactive)	> 100 µM (inactive)	40.9 µM (inactive)	> 100 µM (inactive)	> 79.3 µM (inactive)	> 76.6 µM (inactive)	65 µM (inactive)	43.4 µM (inactive)	> 74.1 µM (inactive)	> 70.8 µM (inactive)	> 76.9 µM (inactive)	> 100 µM (inactive)	35.5 µM (inactive)
CN(C)CCNC(=O)c1cccc2nc3c4ccccc4c4ccccc4c3nc12	1.13 µM (inactive)	3.89 µM (inactive)	1.79 µM (inactive)	5.77 µM (inactive)	1.69	1.31 µM (inactive)	1.52 µM (inactive)	1.64 µM (inactive)	1.65 µM (inactive)	0.875 µM (active)	3.44 µM (inactive)	1.8 µM (inactive)	2.02 µM (inactive)	2.16 µM (inactive)	1.72 µM (inactive)	6.52 µM (inactive)	0.773 µM (active)	2 µM (inactive)	3.86 µM (inactive)	2.35 µM (inactive)
